Reference: ChEMBL document CHEMBL4219185, “DNA sequence-specific ligands. XVII. Synthesis, spectral properties, virological and biochemical studies of fluorescent dimeric bisbenzimidazoles DBA(n)” (Bioorg Med Chem, 2018)
Active and inactive are the calls of the source. The rule behind the calls is not given here.

Legend:
[1] = tested on: HCT-116; test: Cytotoxicity against human HCT116 cells assessed as reduction in cell viability by MTT assay; format: cell-based
[2] = Cytotoxicity against human […] cells assessed as reduction in cell viability by MTT assay; format: cell-based
[3] = tested on: DNA; test: Binding affinity to Escherichia coli supercoiled pHOT1 DNA assessed as inhibition of topoisomerase-1-mediated relaxation of supercoiled DNA at 2.5 to 20 uM after 30 mins by agarose gel electrophoresis method; format: nucleic-acid assay
[4] = tested on: Calf thymus DNA; test: Binding affinity to calf thymus DNA assessed as hypochromic shift at 4.4 x 10^-6M by absorption spectral analysis; format: nucleic-acid assay; conditions: Bos taurus
[5] = tested on: Calf thymus DNA; test: Binding affinity to calf thymus DNA at 1 uM by fluorescence spectral analysis; format: nucleic-acid assay; conditions: Bos taurus
[6] = tested on: MCF-10A; test: Cytotoxicity against human MCF10A cells assessed as reduction in cell viability by MTT assay; format: cell-based
[7] = tested on: Calf thymus DNA; test: Binding affinity to calf thymus DNA groove using DNA cholesteric liquid crystal dispersions assessed as positive band appearance at 1.1 to 5.45 uM by CD spectral analysis; format: nucleic-acid assay; conditions: Bos taurus
[8] = Drug uptake in human U251 cell nucleus treated at 10 to 20 uM after 20 to 40 hrs by fluorescent microscopic method; format: ADME, subcellular; conditions: u-251, 20 µM
[9] = tested on: MCF7; test: Cytotoxicity against human MCF7 cells assessed as reduction in cell viability by MTT assay; format: cell-based
[10] = tested on: Calf thymus DNA; test: Binding affinity to calf thymus DNA assessed as bathochromic shift at 4.4 x 10^-6M by absorption spectral analysis; format: nucleic-acid assay; conditions: Bos taurus
[11] = tested on: Calf thymus DNA; test: Binding affinity to calf thymus DNA assessed as hypochromic shift at 2.38 x 10^-6M by absorption spectral analysis; format: nucleic-acid assay; conditions: Bos taurus
[12] = tested on: Calf thymus DNA; test: Binding affinity to calf thymus DNA at 0.95 uM by fluorescence spectral analysis; format: nucleic-acid assay; conditions: Bos taurus
[13] = tested on: Calf thymus DNA; test: Binding affinity to calf thymus DNA groove using DNA cholesteric liquid crystal dispersions assessed as positive band appearance at 0.47 to 4.73 uM by CD spectral analysis; format: nucleic-acid assay; conditions: Bos taurus
[14] = tested on: Human alphaherpesvirus 1; test: Antiviral activity against Herpes simplex virus-1 infected in cells; format: functional, organism-based
[15] = tested on: Calf thymus DNA; test: Binding affinity to calf thymus DNA assessed as bathochromic shift at 2.38 x 10^-6M by absorption spectral analysis; format: nucleic-acid assay; conditions: Bos taurus
[16] = tested on: Human alphaherpesvirus 1; test: Antiviral activity against Herpes simplex virus-1 strain F infected in African green monkey Vero cells assessed as late protein gb level at 50 ug/ml after 48 hrs by immunostaining based luminescent microscopic method (reference value: 95.6%); format: functional
[17] = molecular target: Human immunodeficiency virus type 1 integrase (Human immunodeficiency virus 1, UniProt Q7ZJM1); test: Inhibition of HIV1 integrase
Sequence of Human immunodeficiency virus type 1 integrase (Q7ZJM1 whole entry): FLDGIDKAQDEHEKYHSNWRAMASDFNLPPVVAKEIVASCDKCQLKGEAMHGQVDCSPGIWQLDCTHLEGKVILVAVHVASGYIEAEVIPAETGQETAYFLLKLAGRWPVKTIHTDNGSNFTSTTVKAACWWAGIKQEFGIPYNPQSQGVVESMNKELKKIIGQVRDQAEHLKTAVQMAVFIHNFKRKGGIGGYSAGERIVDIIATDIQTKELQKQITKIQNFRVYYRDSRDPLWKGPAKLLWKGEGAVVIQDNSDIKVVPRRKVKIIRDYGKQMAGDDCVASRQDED

[18] = tested on: Cytomegalovirus; test: Antiviral activity against CMV infected in cells; format: functional, organism-based
[19] = tested on: DNA; test: Binding affinity to Escherichia coli supercoiled pHOT1 DNA assessed as inhibition of topoisomerase-1-mediated relaxation of supercoiled DNA at 10 uM after 30 mins by agarose gel electrophoresis method; format: nucleic-acid assay

| SMILES | inhibition [3] | IC50 [1] | IC50 [2] | IC50 [6] | IC50 [9] | further results |
| --- | --- | --- | --- | --- | --- | --- |
| Nc1nc2c(ncn2COCCO)c(=O)[nH]1 [ACYCLOVIR] | – | – | – | – | – | Activity [16]: 0.1% |
| CN1CCN(c2ccc3nc(-c4ccc5nc(CNC(=O)CCCCC(=O)NCc6nc7ccc(-c8nc9ccc(N%10CCN(C)CC%10)cc9[nH]8)cc7[nH]6)[nH]c5c4)[nH]c3c2)CC1 | – | 20 to 90 µM | 20 to 90 µM | 20 to 90 µM | 20 to 90 µM | – |
| CN1CCN(c2ccc3nc(-c4ccc5nc(CNC(=O)CCCCCCCCC(=O)NCc6nc7ccc(-c8nc9ccc(N%10CCN(C)CC%10)cc9[nH]8)cc7[nH]6)[nH]c5c4)[nH]c3c2)CC1 | – | 20 to 90 µM | 20 to 90 µM | 20 to 90 µM | 20 to 90 µM | – |
| CN1CCN(c2ccc3nc(-c4ccc5nc(CNC(=O)CCCCCCCCCC(=O)NCc6nc7ccc(-c8nc9ccc(N%10CCN(C)CC%10)cc9[nH]8)cc7[nH]6)[nH]c5c4)[nH]c3c2)CC1 | – | 20 to 90 µM | 20 to 90 µM | 20 to 90 µM | 20 to 90 µM | – |
| CN1CCN(c2ccc3nc(-c4ccc5nc(CNC(=O)CCCC(=O)NCc6nc7ccc(-c8nc9ccc(N%10CCN(C)CC%10)cc9[nH]8)cc7[nH]6)[nH]c5c4)[nH]c3c2)CC1 | – | 20 to 90 µM | 20 to 90 µM | 20 to 90 µM | 20 to 90 µM | inhibition [19]: Active |
| CN1CCN(c2ccc3nc(-c4ccc5nc(CNC(=O)CCCCCCCCCCC(=O)NCc6nc7ccc(-c8nc9ccc(N%10CCN(C)CC%10)cc9[nH]8)cc7[nH]6)[nH]c5c4)[nH]c3c2)CC1 | – | 20 to 90 µM | 20 to 90 µM | 20 to 90 µM | 20 to 90 µM | – |
| CN1CCN(c2ccc3nc(-c4ccc5nc(CNC(=O)CCCCCCC(=O)NCc6nc7ccc(-c8nc9ccc(N%10CCN(C)CC%10)cc9[nH]8)cc7[nH]6)[nH]c5c4)[nH]c3c2)CC1 | – | 20 to 90 µM | 20 to 90 µM | 20 to 90 µM | 20 to 90 µM | – |
| CN1CCN(c2ccc3nc(-c4ccc5nc(CNC(=O)CCC(=O)NCc6nc7ccc(-c8nc9ccc(N%10CCN(C)CC%10)cc9[nH]8)cc7[nH]6)[nH]c5c4)[nH]c3c2)CC1 | – | 20 to 90 µM | 20 to 90 µM | 20 to 90 µM | 20 to 90 µM | – |
| CN1CCN(c2ccc3nc(-c4ccc5nc(CNC(=O)CCCCCCCCCCCCC(=O)NCc6nc7ccc(-c8nc9ccc(N%10CCN(C)CC%10)cc9[nH]8)cc7[nH]6)[nH]c5c4)[nH]c3c2)CC1 | – | 20 to 90 µM | 20 to 90 µM | 20 to 90 µM | 20 to 90 µM | – |
| CN1CCN(c2ccc3nc(-c4ccc5nc(CNC(=O)CCCCCCCCCCCC(=O)NCc6nc7ccc(-c8nc9ccc(N%10CCN(C)CC%10)cc9[nH]8)cc7[nH]6)[nH]c5c4)[nH]c3c2)CC1 | – | 20 to 90 µM | 20 to 90 µM | 20 to 90 µM | 20 to 90 µM | – |

Further lines, with some results ahead:

| inhibition [3] | SMILES | IC50 [1] | IC50 [2] | IC50 [6] | IC50 [9] | further results |
| --- | --- | --- | --- | --- | --- | --- |
| Active | CN(C)CCCNC(=O)c1ccc2nc(-c3ccc4nc(CNC(=O)CCCCCC(=O)NCc5nc6ccc(-c7nc8ccc(C(=O)NCCCN(C)C)cc8[nH]7)cc6[nH]5)[nH]c4c3)[nH]c2c1 | > 240 µM | > 240 µM | > 240 µM | > 240 µM | Activity [4]: Active; Activity [5]: Active; Activity [7]: Active; Drug uptake [8]: Active; Activity [10]: Active |
| Active | CN(C)CCCNC(=O)c1ccc2nc(-c3ccc4nc(CNC(=O)CCCCCCCC(=O)NCc5nc6ccc(-c7nc8ccc(C(=O)NCCCN(C)C)cc8[nH]7)cc6[nH]5)[nH]c4c3)[nH]c2c1 | > 240 µM | > 240 µM | > 240 µM | > 240 µM | Activity [11]: Active; Activity [12]: Active; Activity [13]: Active; Activity [14]: Active; Activity [15]: Active; Drug uptake [8]: Active; Activity [16]: 10% |
| Active | CN1CCN(c2ccc3nc(-c4ccc5nc(CNC(=O)CC(=O)NCc6nc7ccc(-c8nc9ccc(N%10CCN(C)CC%10)cc9[nH]8)cc7[nH]6)[nH]c5c4)[nH]c3c2)CC1 | 20 to 90 µM | 20 to 90 µM | 20 to 90 µM | 20 to 90 µM | – |
| Active | CN(C)CCCNC(=O)c1ccc2nc(-c3ccc4nc(CNC(=O)CCCCCCCCCCCC(=O)NCc5nc6ccc(-c7nc8ccc(C(=O)NCCCN(C)C)cc8[nH]7)cc6[nH]5)[nH]c4c3)[nH]c2c1 | > 240 µM | > 240 µM | > 240 µM | > 240 µM | IC50 [17]: 0.06 µM; Activity [14]: Active; Activity [18]: Active; Drug uptake [8]: Active |
| Active | CN1CCN(c2ccc3nc(-c4ccc5nc(CNC(=O)CCCCCCCC(=O)NCc6nc7ccc(-c8nc9ccc(N%10CCN(C)CC%10)cc9[nH]8)cc7[nH]6)[nH]c5c4)[nH]c3c2)CC1 | 20 to 90 µM | 20 to 90 µM | 20 to 90 µM | 20 to 90 µM | – |
| Active | CN(C)CCCNC(=O)c1ccc2nc(-c3ccc4nc(CNC(=O)CC(=O)NCc5nc6ccc(-c7nc8ccc(C(=O)NCCCN(C)C)cc8[nH]7)cc6[nH]5)[nH]c4c3)[nH]c2c1 | > 240 µM | > 240 µM | > 240 µM | > 240 µM | Activity [14]: Active |
| Active | CN(C)CCCNC(=O)c1ccc2nc(-c3ccc4nc(CNC(=O)CCCCCCCCCC(=O)NCc5nc6ccc(-c7nc8ccc(C(=O)NCCCN(C)C)cc8[nH]7)cc6[nH]5)[nH]c4c3)[nH]c2c1 | > 240 µM | > 240 µM | > 240 µM | > 240 µM | Drug uptake [8]: Active |
| Active | CN1CCN(c2ccc3nc(-c4ccc5nc(CNC(=O)CCCCCC(=O)NCc6nc7ccc(-c8nc9ccc(N%10CCN(C)CC%10)cc9[nH]8)cc7[nH]6)[nH]c5c4)[nH]c3c2)CC1 | 20 to 90 µM | 20 to 90 µM | 20 to 90 µM | 20 to 90 µM | – |
| Active | CN(C)CCCNC(=O)c1ccc2nc(-c3ccc4nc(CNC(=O)CCCC(=O)NCc5nc6ccc(-c7nc8ccc(C(=O)NCCCN(C)C)cc8[nH]7)cc6[nH]5)[nH]c4c3)[nH]c2c1 | > 240 µM | > 240 µM | > 240 µM | > 240 µM | Drug uptake [8]: Active |
